# Results reported in patent US20120004228A1, “Bis Aromatic Compounds for Use as LTC4 Synthase Inhibitors” (BIOLIPOX AB, priority 2009, published 2012).
# pIC50: −log10 of the molar value.
# Target: T1, Recombinant human LTC4 synthase (Homo sapiens, UniProt Q16873)
# T1 construct: made in house; host or cells: Pichia pastoris ('Piccia pastoralis' [sic])
# T1 sequence (Q16873 1-150): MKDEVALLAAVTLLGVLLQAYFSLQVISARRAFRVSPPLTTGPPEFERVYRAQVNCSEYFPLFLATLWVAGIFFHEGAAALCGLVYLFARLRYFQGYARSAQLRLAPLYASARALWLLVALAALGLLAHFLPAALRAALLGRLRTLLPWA
# Experiment: In vitro LTC4 synthase assay (LTA4 to LTC4, HTRF detection)
# Type: biochemical
# Details: not given
row,SMILES,pIC50
1,"CN(c1ccc(Cl)cc1)c1ccc(C(=O)c2ccc(NC(=O)c3cccc(Cl)c3)cc2)c(C(=O)O)c1 [Example 4:2, 2-[4-(3-Chlorobenzamido)benzoyl]-5-[(4-chlorophenyl)(methyl)amino)-benzoic acid]",6.15
2,"COc1ccccc1Nc1cc(C(=O)O)cc(C(=O)c2ccc(N(C)c3ccc(Cl)cc3)cc2)c1 [10:15, 3-{4-[(4-Chlorophenyl)(methyl)amino]benzoyl}-5-(2-methoxyphenylamino)-benzoic acid]",6.44
3,"COc1cccc(Nc2cc(C(=O)O)cc(C(=O)c3ccc(N(C)c4ccc(Cl)cc4)cn3)c2)c1 [9:31, 3-{5-[(4-Chlorophenyl)(methyl)amino]picolinoyl}-5-(3-methoxyphenylamino)-benzoic acid]",6.28
4,"CN(c1ccc(Cl)cc1)c1ccc(C(=O)c2cc(C(=O)O)cc(N3CCOCC3)c2)nc1 [9:36, 3-{5-[(4-Chlorophenyl)(methyl)amino]picolinoyl}-5-(4-morpholinyl)benzoic acid]",6.00
5,"CN(c1ccc(Cl)cc1)c1ccc(C(=O)c2cc(C(=O)O)cc(C(=O)Nc3ccc(Cl)cc3)c2)nc1 [2:3, 3-{5-[(4-Chlorophenyl)(methyl)amino]picolinoyl}-5-(4-chlorophenyl-carbamoyl)-benzoic acid]",6.46
6,"CC(=O)N(c1cc(C(=O)O)cc(C(=O)c2ccc(N(C)c3ccc(Cl)cc3)cn2)c1)C1CCCCC1 [9:43, 3-{5-[(4-Chlorophenyl)(methyl)amino]picolinoyl}-5-(N-cyclohexylacetamido)-benzoic acid]",5.74
7,"CN(c1ccc(Cl)cc1)c1ccc(C(=O)c2cc(OCc3ccc4c(c3)OCO4)cc(C(=O)O)c2)nc1 [11:5, 3-{5-[(4-Chlorophenyl)(methyl)amino]picolinoyl}-5-(3,4-methylenedioxy-benzyloxy)benzoic acid]",6.23
8,"COc1cccc(C(=O)Nc2cc(C(=O)O)cc(C(=O)c3ccc(N(C)c4ccc(Cl)cc4)cn3)c2)c1 [2:10, 3-{5-[(4-Chlorophenyl)(methyl)amino]picolinoyl}-5-(3-methoxybenzamido)-benzoic acid]",6.39
9,"CN(c1ccc(Cl)cc1)c1ccc(C(=O)c2cc(C(=O)O)cc(N3CCCCC3)c2)nc1 [9:37, 3-{5-[(4-Chlorophenyl)(methyl)amino]picolinoyl}-5-(1-piperidinyl)benzoic acid]",6.30
10,"COc1ccccc1Oc1cc(C(=O)O)cc(C(=O)c2ccc(N(C)c3ccc(Cl)cc3)cn2)c1 [8:4, 3-{5-[(4-Chlorophenyl)(methyl)amino]picolinoyl}-5-(2-methoxyphenoxy)benzoic acid]",6.28
11,"COc1cccc(N(C)c2cc(C(=O)O)cc(C(=O)c3ccc(N(C)c4ccc(Cl)cc4)cn3)c2)c1 [9:21, 3-{5-[(4-Chlorophenyl)(methyl)amino]picolinoyl}-5-[(3-methoxyphenyl)(methyl)-amino]benzoic acid]",6.56
12,"CN(c1ccc(Cl)cc1)c1ccc(C(=O)c2cc(C(=O)O)cc(-c3ccccc3Cl)c2)nc1 [12:3, 2′-Chloro-5-{5-[(4-chlorophenyl)(methyl)amino]picolinoyl}biphenyl-3-carboxylic acid]",6.63
13,"CN(c1ccc(Cl)cc1)c1ccc(C(=O)c2cc(C(=O)O)cc(N(C(=O)C3CCOCC3)c3ccccc3)c2)cc1 [10:34, 3-{4-[(4-Chlorophenyl)(methyl)amino]benzoyl}-5-[(N-phenyl)-4-tetrahydro-pyrancarboxamido]benzoic acid]",6.09
14,"COc1ccc(COc2cc(C(=O)O)cc(C(=O)c3ccc(N(C)c4ccc(Cl)cc4)cn3)c2)cc1 [Example 11:1, 3-{5-[(4-Chlorophenyl)(methyl)aminol]picolinoyl}-5-(4-methoxybenzyloxy)benzoic acid]",6.05

# These reach a higher pIC50. Values come first.
row,pIC50,SMILES
1,6.80,"CN(c1ccc(Cl)cc1)c1ccc(C(=O)c2cc(Nc3ccc(C(F)(F)F)cc3)cc(C(=O)O)c2)cc1 [10:17, 3-{4-[(4-Chlorophenyl)(methyl)amino]benzoyl}-5-(4-trifluoromethylphenyl-amino)benzoic acid]"
2,6.83,"CN(c1ccc(Cl)cc1)c1ccc(C(=O)c2cc(C(=O)O)cc(N(CC3CCC3)c3ccccc3)c2)cc1 [10:30, 3-{4-[(4-Chlorophenyl)(methyl)amino]benzoyl}-5-[(cyclobutylmethyl)(phenyl)-amino]benzoic acid]"
3,7.40,"CN(c1ccc(Cl)cc1)c1ccc(C(=O)c2cc(C(=O)O)cc(N(C)c3ccc(Cl)cc3Cl)c2)cc1 [10:13, 3-{4-[(4-Chlorophenyl)(methyl)amino]benzoyl}-5-[(2,4-dichlorophenyl)-(methyl)amino]benzoic acid]"
4,7.39,"CN(c1ccc(Cl)cc1)c1ccc(C(=O)c2cc(Oc3ccc(F)c(F)c3)cc(C(=O)O)c2)nc1 [8:2, 3-{5-[(4-Chlorophenyl)(methyl)amino]picolinoyl}-5-(3,4-difluorophenoxy)-benzoic acid]"
5,7.15,"CN(c1ccc(Cl)cc1)c1ccc(C(=O)c2cc(Nc3ccc(Cl)cc3)cc(C(=O)O)c2)nc1 [9:4, 3-{5-[(4-Chlorophenyl)(methyl)amino]picolinoyl}-5-(4-chlorophenylamino)-benzoic acid]"
6,7.06,"COc1ccc(N(CC2(C)COC2)c2cc(C(=O)O)cc(C(=O)c3ccc(N(C)c4ccc(Cl)cc4)cn3)c2)cc1 [9:25, 3-{5-[(4-Chlorophenyl)(methyl)amino]picolinoyl}-5-{(4-methoxyphenyl)-[(3-methyloxetan-3-yl)methyl]amino}benzoic acid]"
7,7.06,"CN(c1ccc(Cl)cc1)c1ccc(C(=O)c2cc(Oc3cccc(Cl)c3)cc(C(=O)O)c2)cc1 [8:20, 3-(3-Chlorophenoxy)-5-{4-[(4-chlorophenyl)(methyl)amino]benzoyl}benzoic acid]"
8,6.68,"CN(c1ccc(Cl)cc1)c1ccc(C(=O)c2cc(Nc3cc(F)ccc3F)cc(C(=O)O)c2)cc1 [10:5, 3-{4-[(4-Chlorophenyl)(methyl)amino]benzoyl}-5-(2,5-difluorophenylamino)-benzoic acid]"
9,7.40,"CN(c1ccc(Cl)cc1)c1ccc(C(=O)c2cc(C(=O)O)cc(N(C)c3ccccc3)c2)cc1 [Example 10:23, 5-{4-[(4-Chlorophenyl)(methyl)amino]benzoyl}-3-[methyl(phenyl)amino]benzoic acid]"
10,6.70,"Cc1ccccc1Oc1cc(C(=O)O)cc(C(=O)c2ccc(N(C)c3ccc(Cl)cc3)cc2)c1 [8:17, 3-{4-[(4-Chlorophenyl)(methyl)amino]benzoyl}-5-(o-tolyloxy)benzoic acid]"
11,7.77,"CN(c1ccc(Cl)cc1)c1cc(C(=O)O)cc(C(=O)c2ccc(N(CC3CC3)c3ccc(Cl)cc3)cn2)c1 [Example 9:16, 3-{5-[(4-Chlorophenyl)(cyclopropylmethyl)amino]picolinoyl}-5-[(4-chlorophenyl)-(methyl)amino]benzoic acid]"
12,6.74,"CN(c1ccc(Cl)cc1)c1ccc(C(=O)c2cc(C(=O)O)cc(-c3cccc(Cl)c3)c2)nc1 [Example 12:1, 3′-Chloro-5-{5-[(4-chlorophenyl)(methyl)amino]picolinoyl}biphenyl-3-carboxylic acid]"
13,6.84,CN(c1ccc(Cl)cc1)c1ccc(C(=O)c2cc(NC3CCSCC3)cc(C(=O)O)c2)cc1 [10:21]
14,7.40,"CN(c1ccc(Cl)cc1)c1ccc(C(=O)c2cc(C(=O)O)cc(N(C)c3ccccc3F)c2)cc1 [10:24, 3-{4-[(4-Chlorophenyl)(methyl)amino]benzoyl}-5-[(2-fluorophenyl)(methyl)-amino]benzoic acid]"

# Same assay, conditions: 5 min; total concentration of title compound in the assay 10 μM
row,inhibition at 10 µM [%],SMILES
1,100,"CN(c1ccc(Cl)cc1)c1ccc(C(=O)c2ccc(NC(=O)c3cccc(Cl)c3)cc2)c(C(=O)O)c1 [Example 4:2, 2-[4-(3-Chlorobenzamido)benzoyl]-5-[(4-chlorophenyl)(methyl)amino)-benzoic acid]"
